{"source": "a compilation of properties of binary mixtures (doi:10.1016/j.jtice.2008.09.006)", "assay": "xn = mol fraction of the nth substance listed", "settings": "101 kPa"}
{"smiles": "CCCC[n+]1ccn(C)c1.F[P-](F)(F)(F)(F)F", "note": "+ O", "values": [{"measurement": "electrical conductivity", "setting": "293.2 K, x2 = 0.05", "result": 0.181, "unit": "S/m"}, {"measurement": "electrical conductivity", "setting": "293.2 K, x2 = 0.15", "result": 0.235, "unit": "S/m"}, {"measurement": "electrical conductivity", "setting": "293.2 K, x2 = 0.2", "result": 0.29, "unit": "S/m"}, {"measurement": "electrical conductivity", "setting": "298.2 K, x2 = 0.1", "result": 0.268, "unit": "S/m"}, {"measurement": "electrical conductivity", "setting": "298.2 K, x2 = 0.2", "result": 0.364, "unit": "S/m"}, {"measurement": "electrical conductivity", "setting": "303.2 K, x2 = 0.05", "result": 0.291, "unit": "S/m"}, {"measurement": "electrical conductivity", "setting": "303.2 K, x2 = 0.1", "result": 0.331, "unit": "S/m"}, {"measurement": "electrical conductivity", "setting": "303.2 K, x2 = 0.15", "result": 0.382, "unit": "S/m"}, {"measurement": "electrical conductivity", "setting": "303.2 K, x2 = 0.2", "result": 0.448, "unit": "S/m"}, {"measurement": "electrical conductivity", "setting": "308.2 K, x2 = 0.05", "result": 0.351, "unit": "S/m"}, {"measurement": "electrical conductivity", "setting": "308.2 K, x2 = 0.15", "result": 0.469, "unit": "S/m"}, {"measurement": "electrical conductivity", "setting": "313.2 K, x2 = 0.05", "result": 0.423, "unit": "S/m"}, {"measurement": "electrical conductivity", "setting": "313.2 K, x2 = 0.1", "result": 0.488, "unit": "S/m"}, {"measurement": "electrical conductivity", "setting": "313.2 K, x2 = 0.2", "result": 0.652, "unit": "S/m"}, {"measurement": "electrical conductivity", "setting": "318.2 K, x2 = 0.1", "result": 0.563, "unit": "S/m"}, {"measurement": "electrical conductivity", "setting": "318.2 K, x2 = 0.15", "result": 0.675, "unit": "S/m"}, {"measurement": "electrical conductivity", "setting": "323.2 K, x2 = 0.05", "result": 0.592, "unit": "S/m"}, {"measurement": "electrical conductivity", "setting": "323.2 K, x2 = 0.15", "result": 0.792, "unit": "S/m"}, {"measurement": "electrical conductivity", "setting": "323.2 K, x2 = 0.2", "result": 0.911, "unit": "S/m"}, {"measurement": "electrical conductivity", "setting": "333.2 K, x2 = 0.05", "result": 0.701, "unit": "S/m"}, {"measurement": "electrical conductivity", "setting": "333.2 K, x2 = 0.1", "result": 0.797, "unit": "S/m"}, {"measurement": "electrical conductivity", "setting": "333.2 K, x2 = 0.15", "result": 0.923, "unit": "S/m"}, {"measurement": "electrical conductivity", "setting": "343.2 K, x2 = 0.05", "result": 0.833, "unit": "S/m"}, {"measurement": "electrical conductivity", "setting": "343.2 K, x2 = 0.1", "result": 0.928, "unit": "S/m"}, {"measurement": "electrical conductivity", "setting": "343.2 K, x2 = 0.2", "result": 1.23, "unit": "S/m"}, {"measurement": "electrical conductivity", "setting": "353.2 K, x2 = 0.05", "result": 1.06, "unit": "S/m"}, {"measurement": "electrical conductivity", "setting": "353.2 K, x2 = 0.1", "result": 1.22, "unit": "S/m"}]}
